Data published in ChEMBL document CHEMBL1201861, “Genomics of Drug Sensitity in Cancer screening data, Wellcome Trust Sanger Institute”.

Assays:
Experiment in all cases: cells
Type in all cases: functional, cell-based, Homo sapiens
PF-382 = details: Homo sapiens, PF-382
Description: SANGER: Inhibition of human PF-382 cell growth in a cell viability assay.

NCI-H1436 = details: Homo sapiens, NCI-H1436
Description: SANGER: Inhibition of human NCI-H1436 cell growth in a cell viability assay.

EHEB = details: Homo sapiens, EHEB
Description: SANGER: Inhibition of human EHEB cell growth in a cell viability assay.

NCI-H661 = details: Homo sapiens, NCI-H661
Description: SANGER: Inhibition of human NCI-H661 cell growth in a cell viability assay.

MCF7 = details: Homo sapiens, MCF7
Description: SANGER: Inhibition of human MCF7 cell growth in a cell viability assay.

HSC-2 = details: Homo sapiens, HSC-2
Description: SANGER: Inhibition of human HSC-2 cell growth in a cell viability assay.

Daudi = details: Homo sapiens, Daudi
Description: SANGER: Inhibition of human Daudi cell growth in a cell viability assay.

Ca9-22 = details: Homo sapiens, Ca9-22
Description: SANGER: Inhibition of human Ca9-22 cell growth in a cell viability assay.

NCI-H1651 = details: Homo sapiens, NCI-H1651
Description: SANGER: Inhibition of human NCI-H1651 cell growth in a cell viability assay.

NCI-H2347 = details: Homo sapiens, NCI-H2347
Description: SANGER: Inhibition of human NCI-H2347 cell growth in a cell viability assay.

Detroit 562 = details: Homo sapiens, Detroit 562
Description: SANGER: Inhibition of human Detroit562 cell growth in a cell viability assay.

8505C = details: Homo sapiens, 8505C
Description: SANGER: Inhibition of human 8505C cell growth in a cell viability assay.

AN3-CA = details: Homo sapiens, AN3-CA
Description: SANGER: Inhibition of human AN3-CA cell growth in a cell viability assay.

LK-2 = details: Homo sapiens, LK-2
Description: SANGER: Inhibition of human LK-2 cell growth in a cell viability assay.

ChaGo-K-1 = details: Homo sapiens, ChaGo-K-1
Description: SANGER: Inhibition of human ChaGo-K-1 cell growth in a cell viability assay.

NCI-H727 = details: Homo sapiens, NCI-H727
Description: SANGER: Inhibition of human NCI-H727 cell growth in a cell viability assay.

KYSE-450 = details: Homo sapiens, KYSE-450
Description: SANGER: Inhibition of human KYSE-450 cell growth in a cell viability assay.

RO82-W-1 = details: Homo sapiens, RO82-W-1
Description: SANGER: Inhibition of human RO82-W-1 cell growth in a cell viability assay.

HGC-27 = details: Homo sapiens, HGC-27
Description: SANGER: Inhibition of human HGC-27 cell growth in a cell viability assay.

COLO-679 = details: Homo sapiens, COLO-679
Description: SANGER: Inhibition of human COLO-679 cell growth in a cell viability assay.

SW756 = details: Homo sapiens, SW756
Description: SANGER: Inhibition of human SW756 cell growth in a cell viability assay.

SCC-25 = details: Homo sapiens, SCC-25
Description: SANGER: Inhibition of human SCC-25 cell growth in a cell viability assay.

NCI-H1437 = details: Homo sapiens, NCI-H1437
Description: SANGER: Inhibition of human NCI-H1437 cell growth in a cell viability assay.

UACC-893 = details: Homo sapiens, UACC-893
Description: SANGER: Inhibition of human UACC-893 cell growth in a cell viability assay.

OPM-2 = details: Homo sapiens, OPM-2
Description: SANGER: Inhibition of human OPM-2 cell growth in a cell viability assay.

UMUC3 = details: Homo sapiens, UMUC3
Description: SANGER: Inhibition of human UM-UC-3 cell growth in a cell viability assay.

5637 = details: Homo sapiens
Description: SANGER: Inhibition of human 5637 cell growth in a cell viability assay.

NCI-H596 = details: Homo sapiens, NCI-H596
Description: SANGER: Inhibition of human NCI-H596 cell growth in a cell viability assay.

GDM-1 = details: Homo sapiens, GDM-1
Description: SANGER: Inhibition of human GDM-1 cell growth in a cell viability assay.

TE-15 = details: Homo sapiens, TE-15
Description: SANGER: Inhibition of human TE-15 cell growth in a cell viability assay.

EVSA-T = details: Homo sapiens, EVSA-T
Description: SANGER: Inhibition of human EVSA-T cell growth in a cell viability assay.

Hs-578T = details: Homo sapiens, Hs-578T
Description: SANGER: Inhibition of human Hs-578-T cell growth in a cell viability assay.

JEG-3 = details: Homo sapiens, JEG-3
Description: SANGER: Inhibition of human JEG-3 cell growth in a cell viability assay.

PANC-03-27 = details: Homo sapiens, PANC-03-27
Description: SANGER: Inhibition of human PANC-03-27 cell growth in a cell viability assay.

PFSK-1 = details: Homo sapiens, PFSK-1
Description: SANGER: Inhibition of human PFSK-1 cell growth in a cell viability assay.

HuP-T3 = details: Homo sapiens, HuP-T3
Description: SANGER: Inhibition of human HuP-T3 cell growth in a cell viability assay.

KYSE-70 cell line = details: Homo sapiens, KYSE-70
Description: SANGER: Inhibition of human KYSE-70 cell growth in a cell viability assay.

DMS-273 = details: Homo sapiens, DMS-273
Description: SANGER: Inhibition of human DMS-273 cell growth in a cell viability assay.

CAKI-1 = details: Homo sapiens, CAKI-1
Description: SANGER: Inhibition of human CAKI-1 cell growth in a cell viability assay.

BOKU = details: Homo sapiens, BOKU
Description: SANGER: Inhibition of human BOKU cell growth in a cell viability assay.

T-24 = details: Homo sapiens, T-24
Description: SANGER: Inhibition of human T-24 cell growth in a cell viability assay.

NCI-H1703 = details: Homo sapiens, NCI-H1703
Description: SANGER: Inhibition of human NCI-H1703 cell growth in a cell viability assay.

HCC1806 = details: Homo sapiens, HCC1806
Description: SANGER: Inhibition of human HCC1806 cell growth in a cell viability assay.

NCI-H2141 = details: Homo sapiens, NCI-H2141
Description: SANGER: Inhibition of human NCI-H2141 cell growth in a cell viability assay.

SW626 = details: Homo sapiens, SW626
Description: SANGER: Inhibition of human SW626 cell growth in a cell viability assay.

## Cc1cc([N+](=O)[O-])ccc1NS(=O)(=O)c1cc(Cl)ccc1Cl
PF-382
  IC50: 7.73 µM
NCI-H1436
  IC50: > 32 µM
EHEB
  IC50: 9.79 µM
NCI-H661
  IC50: 2.82 µM
MCF7
  IC50: 2.64 µM
HSC-2
  IC50: 4.56 µM
Daudi
  IC50: 1.25 µM
Ca9-22
  IC50: 6 µM
NCI-H1651
  IC50: 3.94 µM
NCI-H2347
  IC50: 5.86 µM
Detroit 562
  IC50: 5.32 µM
8505C
  IC50: 2.67 µM
AN3-CA
  IC50: 1.08 µM
LK-2
  IC50: 0.928 µM
ChaGo-K-1
  IC50: 4.12 µM
NCI-H727
  IC50: 2.03 µM
KYSE-450
  IC50: 6.37 µM
RO82-W-1
  IC50: > 32 µM
HGC-27
  IC50: 4.03 µM
COLO-679
  IC50: 2.4 µM
SW756
  IC50: 2.97 µM
SCC-25
  IC50: 10.9 µM
NCI-H1437
  IC50: 2.73 µM
UACC-893
  IC50: 3.06 µM
OPM-2
  IC50: > 32 µM
UMUC3
  IC50: 1.67 µM
5637
  IC50: 7.25 µM
NCI-H596
  IC50: 7.95 µM
GDM-1
  IC50: 8.37 µM
TE-15
  IC50: 2.15 µM
EVSA-T
  IC50: 11.9 µM
Hs-578T
  IC50: 11.5 µM
JEG-3
  IC50: 4.9 µM
PANC-03-27
  IC50: 6.38 µM
PFSK-1
  IC50: 12.4 µM
HuP-T3
  IC50: 11.2 µM
KYSE-70 cell line
  IC50: 0.812 µM
DMS-273
  IC50: 0.719 µM
CAKI-1
  IC50: 13.2 µM
BOKU
  IC50: 4.36 µM
T-24
  IC50: > 32 µM
NCI-H1703
  IC50: 3.29 µM
HCC1806
  IC50: 20.5 µM
NCI-H2141
  IC50: > 32 µM
SW626
  IC50: 3.12 µM

## Oc1ccc2ccccc2c1SSc1c(O)ccc2ccccc12
PF-382
  IC50: 5.35 µM
NCI-H1436
  IC50: > 32 µM
EHEB
  IC50: 8.56 µM
NCI-H661
  IC50: > 32 µM
MCF7
  IC50: 2.18 µM
HSC-2
  IC50: > 32 µM
Daudi
  IC50: 5.68 µM
Ca9-22
  IC50: 28.1 µM
NCI-H1651
  IC50: > 32 µM
NCI-H2347
  IC50: > 32 µM
Detroit 562
  IC50: > 32 µM
8505C
  IC50: 11.2 µM
AN3-CA
  IC50: 14.3 µM
LK-2
  IC50: 29.2 µM
ChaGo-K-1
  IC50: > 32 µM
NCI-H727
  IC50: 19.7 µM
KYSE-450
  IC50: > 32 µM
RO82-W-1
  IC50: > 32 µM
HGC-27
  IC50: 17.2 µM
COLO-679
  IC50: 28.7 µM
SW756
  IC50: > 32 µM
SCC-25
  IC50: > 32 µM
NCI-H1437
  IC50: > 32 µM
UACC-893
  IC50: > 32 µM
OPM-2
  IC50: > 32 µM
UMUC3
  IC50: > 32 µM
5637
  IC50: > 32 µM
NCI-H596
  IC50: > 32 µM
GDM-1
  IC50: > 32 µM
TE-15
  IC50: > 32 µM
EVSA-T
  IC50: > 32 µM
Hs-578T
  IC50: > 32 µM
JEG-3
  IC50: > 32 µM
PANC-03-27
  IC50: > 32 µM
PFSK-1
  IC50: > 32 µM
HuP-T3
  IC50: > 32 µM
KYSE-70 cell line
  IC50: > 32 µM
DMS-273
  IC50: > 32 µM
CAKI-1
  IC50: > 32 µM
BOKU
  IC50: > 32 µM
T-24
  IC50: > 32 µM
NCI-H1703
  IC50: > 32 µM
HCC1806
  IC50: > 32 µM
NCI-H2141
  IC50: > 32 µM
SW626
  IC50: > 32 µM
